Columns and labels:
Assay in all cases: relative viability (nuclei count vs DMSO), 5 days (fraction); higher = more cells survive
Bortezomib + Dasatinib = compound: CC(C)C[C@H](NC(=O)[C@H](Cc1ccccc1)NC(=O)c1cnccn1)B(O)O [Bortezomib] + Cc1nc(Nc2ncc(C(=O)Nc3c(C)cccc3Cl)s2)cc(N2CCN(CCO)CC2)n1 [Dasatinib] (partner 0.075 µM)
Summary of the method: (§1)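 Lung cancer cell lines were pin-tool dosed in 1536-well plates on the day after seeding, with either a lone drug or a fixed anchor-drug dose plus five library-drug doses (not always all listed) in √10 steps. Nuclei were counted on 4× images after 5 days. Relative viability is the ratio of treated-well to vehicle-well nuclei counts, with each value a median of duplicate plates.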

Obatoclax + Luminespib = compound: COC1=CC(c2cc3ccccc3[nH]2)=N/C1=C\c1[nH]c(C)cc1C [Obatoclax] + CCNC(=O)c1noc(-c2cc(C(C)C)c(O)cc2O)c1-c1ccc(CN2CCOCC2)cc1 [Luminespib] (partner 0.01 µM)
Summary of the method: as §1

Obatoclax + Linsitinib = compound: COC1=CC(c2cc3ccccc3[nH]2)=N/C1=C\c1[nH]c(C)cc1C [Obatoclax] + C[C@]1(O)C[C@@H](c2nc(-c3ccc4ccc(-c5ccccc5)nc4c3)c3c(N)nccn32)C1 [Linsitinib] (partner 1 µM)
Summary of the method: as §1

Obatoclax + AZD7762 = compound: COC1=CC(c2cc3ccccc3[nH]2)=N/C1=C\c1[nH]c(C)cc1C [Obatoclax] + NC(=O)Nc1cc(-c2cccc(F)c2)sc1C(=O)N[C@H]1CCCNC1 [AZD7762] (partner 0.2 µM)
Summary of the method: as §1

PC-3 [JPC-3]
relative viability (Bortezomib + Dasatinib; first compound 0.0002 µM): 0.961 | relative viability (Bortezomib + Dasatinib; first compound 0.000632 µM): 0.994 | relative viability (Bortezomib + Dasatinib; first compound 0.002 µM): 0.991 | relative viability (Bortezomib + Dasatinib; first compound 0.006325 µM): 0.199 | relative viability (Bortezomib + Dasatinib; first compound 0.02 µM): 0.106 | relative viability (Obatoclax + Luminespib; first compound 0.01 µM): 0.652 | relative viability (Obatoclax + Luminespib; first compound 0.03162 µM): 0.606 | relative viability (Obatoclax + Luminespib; first compound 0.1 µM): 0.742 | relative viability (Obatoclax + Luminespib; first compound 0.3162 µM): 0.683 | relative viability (Obatoclax + Luminespib; first compound 1 µM): 0.745 | relative viability (Obatoclax + Linsitinib; first compound 0.01 µM): 0.947 | relative viability (Obatoclax + Linsitinib; first compound 0.03162 µM): 0.936 | relative viability (Obatoclax + Linsitinib; first compound 0.1 µM): 0.963 | relative viability (Obatoclax + Linsitinib; first compound 0.3162 µM): 0.989 | relative viability (Obatoclax + Linsitinib; first compound 1 µM): 0.898 | relative viability (Obatoclax + AZD7762; first compound 0.01 µM): 0.825 | relative viability (Obatoclax + AZD7762; first compound 0.03162 µM): 0.834 | relative viability (Obatoclax + AZD7762; first compound 0.1 µM): 0.808 | relative viability (Obatoclax + AZD7762; first compound 0.3162 µM): 0.607 | relative viability (Obatoclax + AZD7762; first compound 1 µM): 0.419

HCC-44
relative viability (Obatoclax + Luminespib; first compound 0.01 µM): 1.07 | relative viability (Obatoclax + Luminespib; first compound 0.03162 µM): 0.992 | relative viability (Obatoclax + Luminespib; first compound 0.1 µM): 0.658 | relative viability (Obatoclax + Luminespib; first compound 0.3162 µM): 0.65 | relative viability (Obatoclax + Luminespib; first compound 1 µM): 0.167 | relative viability (Obatoclax + Linsitinib; first compound 0.01 µM): 0.688 | relative viability (Obatoclax + Linsitinib; first compound 0.03162 µM): 0.628 | relative viability (Obatoclax + Linsitinib; first compound 0.1 µM): 0.688 | relative viability (Obatoclax + Linsitinib; first compound 0.3162 µM): 0.555 | relative viability (Obatoclax + Linsitinib; first compound 1 µM): 0.63 | relative viability (Obatoclax + AZD7762; first compound 0.01 µM): 0.95 | relative viability (Obatoclax + AZD7762; first compound 0.03162 µM): 1.03 | relative viability (Obatoclax + AZD7762; first compound 0.1 µM): 1.14 | relative viability (Obatoclax + AZD7762; first compound 0.3162 µM): 1.01 | relative viability (Obatoclax + AZD7762; first compound 1 µM): 0.978

NCI-H2405
relative viability (Bortezomib + Dasatinib; first compound 0.0002 µM): 0.18 | relative viability (Bortezomib + Dasatinib; first compound 0.000632 µM): 0.188 | relative viability (Bortezomib + Dasatinib; first compound 0.002 µM): 0.288 | relative viability (Bortezomib + Dasatinib; first compound 0.006325 µM): 0.16 | relative viability (Bortezomib + Dasatinib; first compound 0.02 µM): 0.144 | relative viability (Obatoclax + Luminespib; first compound 0.01 µM): 0.606 | relative viability (Obatoclax + Luminespib; first compound 0.03162 µM): 0.67 | relative viability (Obatoclax + Luminespib; first compound 0.3162 µM): 0.782 | relative viability (Obatoclax + Luminespib; first compound 1 µM): 0.735 | relative viability (Obatoclax + Linsitinib; first compound 0.01 µM): 0.936 | relative viability (Obatoclax + Linsitinib; first compound 0.03162 µM): 1.11 | relative viability (Obatoclax + Linsitinib; first compound 0.3162 µM): 0.866 | relative viability (Obatoclax + Linsitinib; first compound 1 µM): 0.87 | relative viability (Obatoclax + AZD7762; first compound 0.01 µM): 0.726 | relative viability (Obatoclax + AZD7762; first compound 0.03162 µM): 0.857 | relative viability (Obatoclax + AZD7762; first compound 0.3162 µM): 0.924 | relative viability (Obatoclax + AZD7762; first compound 1 µM): 0.8

LXF-289
relative viability (Bortezomib + Dasatinib; first compound 0.0002 µM): 0.374 | relative viability (Bortezomib + Dasatinib; first compound 0.000632 µM): 0.151 | relative viability (Bortezomib + Dasatinib; first compound 0.002 µM): 0.227 | relative viability (Bortezomib + Dasatinib; first compound 0.006325 µM): 0.0474 | relative viability (Bortezomib + Dasatinib; first compound 0.02 µM): 0.0368 | relative viability (Obatoclax + Luminespib; first compound 0.01 µM): 0.707 | relative viability (Obatoclax + Luminespib; first compound 0.03162 µM): 0.649 | relative viability (Obatoclax + Luminespib; first compound 0.1 µM): 0.594 | relative viability (Obatoclax + Luminespib; first compound 0.3162 µM): 0.619 | relative viability (Obatoclax + Luminespib; first compound 1 µM): 0.662 | relative viability (Obatoclax + Linsitinib; first compound 0.01 µM): 0.903 | relative viability (Obatoclax + Linsitinib; first compound 0.03162 µM): 0.969 | relative viability (Obatoclax + Linsitinib; first compound 0.1 µM): 0.961 | relative viability (Obatoclax + Linsitinib; first compound 0.3162 µM): 0.93 | relative viability (Obatoclax + Linsitinib; first compound 1 µM): 0.994 | relative viability (Obatoclax + AZD7762; first compound 0.01 µM): 1.03 | relative viability (Obatoclax + AZD7762; first compound 0.03162 µM): 1.07 | relative viability (Obatoclax + AZD7762; first compound 0.1 µM): 1.14 | relative viability (Obatoclax + AZD7762; first compound 0.3162 µM): 1.1 | relative viability (Obatoclax + AZD7762; first compound 1 µM): 1.09

LOU-NH91
relative viability (Bortezomib + Dasatinib; first compound 0.0002 µM): 0.539 | relative viability (Bortezomib + Dasatinib; first compound 0.000632 µM): 0.529 | relative viability (Bortezomib + Dasatinib; first compound 0.002 µM): 0.519 | relative viability (Bortezomib + Dasatinib; first compound 0.006325 µM): 0.271 | relative viability (Bortezomib + Dasatinib; first compound 0.02 µM): 0.226 | relative viability (Obatoclax + Luminespib; first compound 0.01 µM): 0.351 | relative viability (Obatoclax + Luminespib; first compound 0.03162 µM): 0.367 | relative viability (Obatoclax + Luminespib; first compound 0.1 µM): 0.345 | relative viability (Obatoclax + Luminespib; first compound 0.3162 µM): 0.265 | relative viability (Obatoclax + Luminespib; first compound 1 µM): 0.294 | relative viability (Obatoclax + Linsitinib; first compound 0.01 µM): 0.949 | relative viability (Obatoclax + Linsitinib; first compound 0.03162 µM): 0.865 | relative viability (Obatoclax + Linsitinib; first compound 0.1 µM): 0.792 | relative viability (Obatoclax + Linsitinib; first compound 0.3162 µM): 0.833 | relative viability (Obatoclax + Linsitinib; first compound 1 µM): 0.761 | relative viability (Obatoclax + AZD7762; first compound 0.01 µM): 0.703 | relative viability (Obatoclax + AZD7762; first compound 0.03162 µM): 0.717 | relative viability (Obatoclax + AZD7762; first compound 0.1 µM): 0.646 | relative viability (Obatoclax + AZD7762; first compound 0.3162 µM): 0.667 | relative viability (Obatoclax + AZD7762; first compound 1 µM): 0.539

H3255
relative viability (Bortezomib + Dasatinib; first compound 0.0002 µM): 0.332 | relative viability (Bortezomib + Dasatinib; first compound 0.000632 µM): 0.271 | relative viability (Bortezomib + Dasatinib; first compound 0.002 µM): 0.299 | relative viability (Bortezomib + Dasatinib; first compound 0.006325 µM): 0.37 | relative viability (Bortezomib + Dasatinib; first compound 0.02 µM): 0.28 | relative viability (Obatoclax + Luminespib; first compound 0.01 µM): 0.903 | relative viability (Obatoclax + Luminespib; first compound 0.03162 µM): 0.823 | relative viability (Obatoclax + Luminespib; first compound 0.1 µM): 0.899 | relative viability (Obatoclax + Luminespib; first compound 0.3162 µM): 0.88 | relative viability (Obatoclax + Luminespib; first compound 1 µM): 0.806 | relative viability (Obatoclax + Linsitinib; first compound 0.01 µM): 0.893 | relative viability (Obatoclax + Linsitinib; first compound 0.03162 µM): 0.976 | relative viability (Obatoclax + Linsitinib; first compound 0.1 µM): 0.985 | relative viability (Obatoclax + Linsitinib; first compound 0.3162 µM): 0.884 | relative viability (Obatoclax + Linsitinib; first compound 1 µM): 0.892 | relative viability (Obatoclax + AZD7762; first compound 0.01 µM): 0.874 | relative viability (Obatoclax + AZD7762; first compound 0.03162 µM): 0.848 | relative viability (Obatoclax + AZD7762; first compound 0.1 µM): 0.725 | relative viability (Obatoclax + AZD7762; first compound 0.3162 µM): 0.785 | relative viability (Obatoclax + AZD7762; first compound 1 µM): 0.762

NCI-H1395
relative viability (Bortezomib + Dasatinib; first compound 0.0002 µM): 0.428 | relative viability (Bortezomib + Dasatinib; first compound 0.000632 µM): 0.41 | relative viability (Bortezomib + Dasatinib; first compound 0.002 µM): 0.427 | relative viability (Bortezomib + Dasatinib; first compound 0.006325 µM): 0.352 | relative viability (Bortezomib + Dasatinib; first compound 0.02 µM): 0.306 | relative viability (Obatoclax + Luminespib; first compound 0.01 µM): 0.634 | relative viability (Obatoclax + Luminespib; first compound 0.03162 µM): 0.491 | relative viability (Obatoclax + Luminespib; first compound 0.1 µM): 0.701 | relative viability (Obatoclax + Luminespib; first compound 0.3162 µM): 0.523 | relative viability (Obatoclax + Luminespib; first compound 1 µM): 0.421 | relative viability (Obatoclax + Linsitinib; first compound 0.01 µM): 1.23 | relative viability (Obatoclax + Linsitinib; first compound 0.03162 µM): 0.922 | relative viability (Obatoclax + Linsitinib; first compound 0.1 µM): 0.884 | relative viability (Obatoclax + Linsitinib; first compound 0.3162 µM): 0.926 | relative viability (Obatoclax + Linsitinib; first compound 1 µM): 0.526 | relative viability (Obatoclax + AZD7762; first compound 0.01 µM): 0.396 | relative viability (Obatoclax + AZD7762; first compound 0.03162 µM): 0.395 | relative viability (Obatoclax + AZD7762; first compound 0.1 µM): 0.393 | relative viability (Obatoclax + AZD7762; first compound 0.3162 µM): 0.375 | relative viability (Obatoclax + AZD7762; first compound 1 µM): 0.348

LC-2-ad
relative viability (Bortezomib + Dasatinib; first compound 0.0002 µM): 0.52 | relative viability (Bortezomib + Dasatinib; first compound 0.000632 µM): 0.332 | relative viability (Bortezomib + Dasatinib; first compound 0.002 µM): 0.6 | relative viability (Bortezomib + Dasatinib; first compound 0.006325 µM): 0.149 | relative viability (Bortezomib + Dasatinib; first compound 0.02 µM): 0.187 | relative viability (Obatoclax + Luminespib; first compound 0.01 µM): 0.984 | relative viability (Obatoclax + Luminespib; first compound 0.03162 µM): 0.914 | relative viability (Obatoclax + Luminespib; first compound 0.1 µM): 0.773 | relative viability (Obatoclax + Luminespib; first compound 0.3162 µM): 0.733 | relative viability (Obatoclax + Luminespib; first compound 1 µM): 0.361 | relative viability (Obatoclax + Linsitinib; first compound 0.01 µM): 0.829 | relative viability (Obatoclax + Linsitinib; first compound 0.03162 µM): 0.828 | relative viability (Obatoclax + Linsitinib; first compound 0.1 µM): 0.906 | relative viability (Obatoclax + Linsitinib; first compound 0.3162 µM): 0.688 | relative viability (Obatoclax + Linsitinib; first compound 1 µM): 0.434 | relative viability (Obatoclax + AZD7762; first compound 0.01 µM): 0.857 | relative viability (Obatoclax + AZD7762; first compound 0.03162 µM): 0.888 | relative viability (Obatoclax + AZD7762; first compound 0.1 µM): 0.777 | relative viability (Obatoclax + AZD7762; first compound 0.3162 µM): 0.836 | relative viability (Obatoclax + AZD7762; first compound 1 µM): 0.438

Reference: the supplement of paper PMC10307832
